The record followed here is US11964960B2 (Cornell University, priority 2018, dated 2024).

T1 sequence (O95136 whole entry, species assumed): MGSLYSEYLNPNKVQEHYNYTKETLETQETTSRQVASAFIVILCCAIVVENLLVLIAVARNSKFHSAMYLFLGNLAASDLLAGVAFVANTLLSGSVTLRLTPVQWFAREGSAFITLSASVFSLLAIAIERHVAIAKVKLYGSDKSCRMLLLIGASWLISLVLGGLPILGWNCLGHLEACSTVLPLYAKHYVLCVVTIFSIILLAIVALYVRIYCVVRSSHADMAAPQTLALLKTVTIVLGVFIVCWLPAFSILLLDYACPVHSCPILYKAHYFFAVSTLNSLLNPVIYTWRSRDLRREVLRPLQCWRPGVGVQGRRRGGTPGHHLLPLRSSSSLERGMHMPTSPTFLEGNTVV

One assay has as its target T1, S1P2 (Homo sapiens, UniProt O95136).
T1 construct: Flag; expressed in transfected cells; host or cells: Chinese hamster ovary (CHO) cells, doxycycline-inducible (CHO-S1P2-FL / CHO-S1PR2 FL)
Briefly: GLISA RhoA activation - antagonist assay. The assay is classed as cell-based. The settings on record: 1 μM compound, CHO-S1P2-FL cells. The protocol:
GLISA RhoA Activation—Antagonist Assay
GLISA assays were performed using RhoA (BK124) activation kit purchased from Cytoskeleton Inc., Denver, CO Doxycycline-inducible Flag-tag S1P2 expressing Chinese hamster ovary (CHO) cells (CHO-S1P2-FL) were seeded in a 6-well plate, 1.5×10^5 cells per well. Cells were stimulated with […] of Doxycycline to induce S1P2 expression in serum free IMDM media with 0.1% BSA/PBS. Following day, cells were stimulated with the compounds described herein (1 nM-10 μM) or 1 μM JTE-013 for 1 hour at 37° C. Following compound incubation, cells were washed with PBS×3 and induced with 100 nM […] for 5 min. […] Protein concentration was examined using GLISA—Precision Red Advanced Protein assay reagent as described in assay manual. Lysates were immobilized on GTP-bound capture plate and GLISA assay was performed based on manufacture recommendations as reported previously.
As for `COc1ccc(Cn2c(C)cc(C(=O)C(C)n3cc(Br)ccc3=O)c2C)cc1` (centres unmarked) [Example 61, 5-Bromo-1-(1-(1-(4-methoxybenzyl)-2,5-dimethyl-1H-pyrrol-3-yl)-1-oxopropan-2-yl)pyridin-2(1H)-one], the inhibition at 1 µM was 18%.
Same read-out and setting: in the case of `Cc1cc(C(=O)C(C)n2cc(Br)ccc2=O)c(C)n1Cc1cccc(F)c1` (centres unmarked) [Example 62, 5-Bromo-1-(1-(1-(3-fluorobenzyl)-2,5-dimethyl-1H-pyrrol-3-yl)-1-oxopropan-2-yl)pyridin-2(1H)-one] it was 11%; in that of `Cc1cccc(Cn2c(C)cc(C(=O)C(C)n3cc(Br)ccc3=O)c2C)c1` (centres unmarked) [Example 63, 5-Bromo-1-(1-(2,5-dimethyl-1-(3-methylbenzyl)-1H-pyrrol-3-yl)-1-oxopropan-2-yl)pyridin-2(1H)-one], 17%.
`Cc1ccccc1Cn1c(C)cc(C(=O)C(C)n2cc(Br)ccc2=O)c1C` (centres unmarked) [Example 64, 5-Bromo-1-(1-(2,5-dimethyl-1-(2-methylbenzyl)-1H-pyrrol-3-yl)-1-oxopropan-2-yl)pyridin-2(1H)-one]: the inhibition at 1 µM was under 10%.
The same measure, in the same setting: in the case of `Cc1ccc(Cn2c(C)cc(C(=O)C(C)n3cc(Br)ccc3=O)c2C)cc1` (centres unmarked) [Example 65, 5-Bromo-1-(1-(2,5-dimethyl-1-(4-methylbenzyl)-1H-pyrrol-3-yl)-1-oxopropan-2-yl)pyridin-2(1H)-one] it was 11%.
On the same count and under the same terms, in the case of `O=C(Cn1cc(Br)ccc1=O)N1CCC(Cc2ccc(F)cc2)C1` (centres unmarked) [Example 66, 5-Bromo-1-(2-(3-(4-fluorobenzyl)pyrrolidin-1-yl)-2-oxoethyl)pyridin-2(1H)-one] it was under 10%; in that of `O=C(Cn1cc(Br)ccc1=O)N1CCC(c2ccc(F)cc2)C1` (centres unmarked) [Example 67, 5-Bromo-1-(2-(3-(4-fluorophenyl)pyrrolidin-1-yl)-2-oxoethyl)pyridin-2(1H)-one], 42%; in that of `Cc1cc(C(=O)Cn2cc(Br)ccc2=O)nn1Cc1ccc(F)cc1` [Example 68, 5-Bromo-1-(2-(1-(4-fluorobenzyl)-5-methyl-1H-pyrazol-3-yl)-2-oxoethyl)pyridin-2(1H)-one], 18%.
Still for that read-out and setting: in the case of `COC(=O)c1ccc(=O)n(CC(=O)c2cc(C)n(Cc3ccccc3)c2C)c1` [Example 90] it was under 10%.

Staying with this assay, now noted: CHO-S1P2-FL cells, 1 hour compound incubation, then for 5 min.
For the molecule `Cc1c(C(=O)Cn2cc(C#N)cc(C#N)c2=O)cnn1Cc1ccccc1` [Example 69, 1-(2-(1-Benzyl-5-methyl-1H-pyrazol-4-yl)-2-oxoethyl)-2-oxo-1,2-dihydropyridine-3,5-dicarbonitrile], the IC50 worked out at 50 nM.
As for `Cc1c(C(=O)Cn2cc(Br)ncc2=O)cnn1Cc1ccccc1` [Example 70, 1-(2-(1-Benzyl-5-methyl-1H-pyrazol-4-yl)-2-oxoethyl)-5-bromopyrazin-2(1H)-one], the midpoint of inhibition, the IC50, lay at 181 nM.
Turning to `Cc1c(C(=O)Cn2c(F)c(Br)ccc2=O)cnn1Cc1ccccc1` [Example 71, 1-(2-(1-Benzyl-5-methyl-1H-pyrazol-4-yl)-2-oxoethyl)-5-bromo-6-fluoropyridin-2(1H)-one], the IC50 is 22 nM.
The same measure, in the same setting: in the case of `Cc1c(C(=O)Cn2cc(Br)c(F)cc2=O)cnn1Cc1ccccc1` [Example 72, 1-(2-(1-Benzyl-5-methyl-1H-pyrazol-4-yl)-2-oxoethyl)-5-bromo-4-fluoropyridin-2(1H)-one] it was 91 nM; in that of `C#Cc1ccc(=O)n(C(C)C(=O)c2cnn(Cc3ccccc3)c2C)n1` (centres unmarked) [Example 73, 2-(1-(1-Benzyl-5-methyl-1H-pyrazol-4-yl)-1-oxopropan-2-yl)-6-ethynylpyridazin-3(2H)-one], 59 nM.
Still for that read-out and setting: in the case of `C#Cc1ccc(=O)n(C(C)C(=O)c2cnn(Cc3ccc(F)cc3)c2C)n1` (centres unmarked) [Example 74, 6-Ethynyl-2-(1-(1-(4-fluorobenzyl)-5-methyl-1H-pyrazol-4-yl)-1-oxopropan-2-yl)pyridazin-3(2H)-one] it was 46 nM.
The same measure, in the same setting: in the case of `C#Cc1ccc(=O)n(C(C)C(=O)c2cnn(Cc3ccc(F)cc3F)c2C)n1` (centres unmarked) [Example 75, 2-(1-(1-(2,4-Difluorobenzyl)-5-methyl-1H-pyrazol-4-yl)-1-oxopropan-2-yl)-6-ethynylpyridazin-3(2H)-one] it was 58 nM; in that of `C=Cc1ccc(=O)n(C(C)C(=O)c2cnn(Cc3ccccc3)c2C)n1` (centres unmarked) [Example 76, 2-(1-(1-Benzyl-5-methyl-1H-pyrazol-4-yl)-1-oxopropan-2-yl)-6-vinylpyridazin-3(2H)-one], 130 nM; in that of `C#Cc1ccc(=O)n(C(C)C(=O)c2cnn(Cc3ccccn3)c2C)c1` (centres unmarked) [Example 77], 100 nM.
On to `C=Cc1ccc(=O)n(C(C)C(=O)c2cnn(Cc3ccccn3)c2C)c1` (centres unmarked) [Example 79, 1-(1-(5-Methyl-1-(pyridin-2-ylmethyl)-1H-pyrazol-4-yl)-1-oxopropan-2-yl)-5-vinylpyridin-2(1H)-one], for which the IC50 came out at 50 nM.
Molecule `C=Cc1ccc(=O)n(CC(=O)c2cnn(Cc3ccccn3)c2CC)c1` [Example 80, 1-(2-(5-Ethyl-1-(pyridin-2-ylmethyl)-1H-pyrazol-4-yl)-2-oxoethyl)-5-vinylpyridin-2(1H)-one] showed an IC50 of 97 nM.
On the same count and under the same terms, in the case of `C=C(C)c1ccc(=O)n(CC(=O)c2cnn(Cc3ccccc3)c2C)c1` [Example 81, 1-(2-(1-Benzyl-5-methyl-1H-pyrazol-4-yl)-2-oxoethyl)-5-(prop-1-en-2-yl)pyridin-2(1H)-one] it was 181 nM; in that of `C=Cc1ccc(=O)n(CC(=O)c2cnn(Cc3ccccc3)c2C(F)(F)F)c1` [Example 82, 1-(2-(1-Benzyl-5-(trifluoromethyl)-1H-pyrazol-4-yl)-2-oxoethyl)-5-vinylpyridin-2(1H)-one], 74 nM; in that of `C=C(F)c1ccc(=O)n(CC(=O)c2cnn(Cc3ccccc3)c2C)c1` [Example 83], 82 nM.
Still for that read-out and setting: in the case of `C=C(c1ccc(=O)n(CC(=O)c2cnn(Cc3ccccc3)c2C)c1)C(F)(F)F` [Example 84, 1-(2-(1-Benzyl-5-methyl-1H-pyrazol-4-yl)-2-oxoethyl)-5-(3,3,3-trifluoroprop-1-en-2-yl)pyridin-2(1H)-one] it was 43 nM; in that of `C=Cc1ccc(=O)n(CC(=O)c2cnn(Cc3ccccc3)c2CC)c1` [Example 85, 1-(2-(1-Benzyl-5-ethyl-1H-pyrazol-4-yl)-2-oxoethyl)-5-vinylpyridin-2(1H)-one], 108 nM; in that of `C=Cc1ccc(=O)n(CC(=O)c2c(C)nn(Cc3ccccc3)c2C)c1` [Example 86, 1-(2-(1-Benzyl-3,5-dimethyl-1H-pyrazol-4-yl)-2-oxoethyl)-5-vinylpyridin-2(1H)-one], 92 nM.
On the same count and under the same terms, in the case of `C=Cc1ccc(=O)n(CC(=O)c2cnn(Cc3ccccc3)c2C(F)F)c1` [Example 87, 1-(2-(1-Benzyl-5-(difluoromethyl)-1H-pyrazol-4-yl)-2-oxoethyl)-5-vinylpyridin-2(1H)-one] it was 107 nM; in that of `C#Cc1ccc(=O)n(CC(=O)c2nnn(Cc3ccccc3)c2C)c1` [Example 88, 1-(2-(1-Benzyl-5-methyl-1H-1,2,3-triazol-4-yl)-2-oxoethyl)-5-ethynylpyridin-2(1H)-one], 72 nM; in that of `C=Cc1ccc(=O)n(CC(=O)c2nnn(Cc3ccccc3)c2C)c1` [Example 89, 1-(2-(1-Benzyl-5-methyl-1H-1,2,3-triazol-4-yl)-2-oxoethyl)-5-vinylpyridin-2(1H)-one], 65 nM.
